Values of other authors in US11547692B2, “Complete animal food having cannabinoids in trace concentrations to avoid toxicity” (High Plains Nutrition, LLC, priority 2017, dated 2023).

Tested on: psychotropic effects
Conditions: humans; single administration; lowest dose tested; European Food Safety Authority (EFSA, 2011)

In the case of `CCCCCc1cc(O)c2c(c1)OC(C)(C)[C@@H]1CCC(C)=C[C@@H]21` [THC, Tetrahydrocannabinol], the “Lowest Observed Effect Level (LOEL), lowest effective dose for psychotropic effects” value is listed as 0.04 mg THC/kg BW.
